Measurements published in patent publication US20120071475A1, “UREA DERIVATIVES HAVING PI3K-INHIBITING ACTIVITY” (SHIONOGI & CO., LTD., priority 2009, published 2012).

Tests used:
[1] = molecular target: PI3Kγ (Homo sapiens, UniProt P48736); test: PI3Kγ inhibitory activity (PI3-kinase HTRF assay, inhibition ratio); assay type: biochemical; details: 0.5 h, compound at 10 μmol/L; read-out: PI3Kg Inhibition Ratio % (10 μM)
In short: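 Compound at 10 μmol/L preincubated 10 min with PI3Kγ and PIP2 substrate, then reacted with ATP for 30 minutes at room temperature; the compound, substrate and ATP figures as printed (40 μmol/L each) are solution concentrations. HTRF 665/620 nm ratio read after 18 hours. Inhibition ratio calculated against no-compound (100%) and no-enzyme (0%) controls.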

[2] = Metabolic stability test (pooled human liver microsome); assay type: in vitro ADME; details: percentage of test compound remained after 30 minutes, pooled human liver microsome 0.5 mg protein/mL, 1 mmol/L NADPH, 37° C., compound 0.5 μM
In short: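 Pooled human liver microsomes (0.5 mg protein/mL) incubated with compound and 1 mmol/L NADPH at 37° C. in pH 7.4 Tris buffer for 0 or 30 min. Parent quantified by LC/MS/MS after methanol/acetonitrile quench; value is % remaining at 30 min versus 0 min.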

[3] = molecular target: T1, hERG channel (IKr) (Homo sapiens, UniProt Q12809); test: hERG test (whole-cell patch-clamp, IKr in HEK293 cells); assay type: cell-based; details: human, HEK293 cells expressing hERG channel, pH 7.4, inhibition of maximum tail current (IKr), compound 1 μM
T1 construct: expressed in transfected cells; host or cells: HEK293
T1 sequence (Q12809 whole entry): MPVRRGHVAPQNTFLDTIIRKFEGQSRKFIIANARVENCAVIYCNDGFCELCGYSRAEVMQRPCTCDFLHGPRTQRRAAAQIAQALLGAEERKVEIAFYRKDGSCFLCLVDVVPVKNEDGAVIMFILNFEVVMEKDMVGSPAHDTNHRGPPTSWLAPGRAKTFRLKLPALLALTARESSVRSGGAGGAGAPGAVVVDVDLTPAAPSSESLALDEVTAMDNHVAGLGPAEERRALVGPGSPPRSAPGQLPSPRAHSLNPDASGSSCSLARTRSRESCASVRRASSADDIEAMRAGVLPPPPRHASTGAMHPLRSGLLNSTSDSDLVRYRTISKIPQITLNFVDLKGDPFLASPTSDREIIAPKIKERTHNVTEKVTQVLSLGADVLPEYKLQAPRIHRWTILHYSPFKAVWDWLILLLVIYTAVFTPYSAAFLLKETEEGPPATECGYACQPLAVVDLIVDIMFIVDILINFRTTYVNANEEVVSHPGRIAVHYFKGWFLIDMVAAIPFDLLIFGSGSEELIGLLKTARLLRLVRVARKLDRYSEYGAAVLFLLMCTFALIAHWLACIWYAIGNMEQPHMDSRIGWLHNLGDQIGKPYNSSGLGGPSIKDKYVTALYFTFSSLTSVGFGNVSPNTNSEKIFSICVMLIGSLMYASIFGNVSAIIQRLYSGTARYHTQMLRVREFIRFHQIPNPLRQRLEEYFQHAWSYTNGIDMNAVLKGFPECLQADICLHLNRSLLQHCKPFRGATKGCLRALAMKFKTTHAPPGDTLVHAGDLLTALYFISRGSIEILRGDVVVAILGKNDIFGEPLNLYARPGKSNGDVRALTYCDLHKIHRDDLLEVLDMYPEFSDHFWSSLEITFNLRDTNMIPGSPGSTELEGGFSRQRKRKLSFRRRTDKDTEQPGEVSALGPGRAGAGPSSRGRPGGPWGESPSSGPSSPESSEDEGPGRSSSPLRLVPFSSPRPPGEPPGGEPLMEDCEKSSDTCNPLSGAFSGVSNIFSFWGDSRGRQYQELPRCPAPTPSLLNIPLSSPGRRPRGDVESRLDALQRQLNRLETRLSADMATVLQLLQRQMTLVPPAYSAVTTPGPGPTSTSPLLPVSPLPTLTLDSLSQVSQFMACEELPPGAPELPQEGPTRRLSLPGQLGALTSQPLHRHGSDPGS
In short: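 hERG-expressing HEK293 cells, automated whole-cell patch clamp: hold −80 mV, +50 mV for 2 s, then −50 mV for 2 s to record IKr tail current. Compound in extracellular solution (pH 7.4) for 10 min at room temperature; inhibition of maximum tail current calculated versus pre-application and compared with 0.1% DMSO vehicle.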

[4] = test system: CYP1A2, CYP2C9, CYP2C19, CYP2D6 and CYP3A4 (one value for the five species); test: CYP inhibition test, five CYP species together (5CYPs_IC50; pooled human liver microsome); assay type: in vitro ADME; details: human, microsomes
Description: O-de-ethylation of 7-ethoxyresorufin (CYP1A2), methyl-hydroxylation of tolbutamide (CYP2C9), 4′-hydroxylation of mephenyloin (CYP2C19), O-demethylation of dextromethorphan (CYP2D6), and hydroxylation of terfenadine (CYP3A4), which are typical substrate for metabolic reactions of human main CYP5 molecular species (CYP1A2, 2C9, 2C19, 2D6, and 3A4), were adopted as indexes.
The reaction conditions are as follows: substrate: 0.5 μmol/L of ethoxyresorufin (CYP1A2), 100 μmol/L of tolbutamide (CYP2C9), 50 μmol/L of S-mephenyloin (CYP2C19), 5 μmol/L of dextromethorphan (CYP2D6), and 1 μmol/L of terfenadine (CYP3A4); reaction time; 15 minutes; reaction temperature: 37° C.; enzyme: pooled human liver microsome 0.2 mg protein/mL; test drug concentration: 1, 5, 10, and 20 μmol/L (4 points).
In a 96-well plate, as a reaction solution, five kinds of substrates, a human liver microsome, and a test drug were added to 50 mmol/L Hepes buffer solution in the aforementioned ratio. A coenzyme NADPH was added to start a metabolic reaction, which is an index. After reacting at 37° C. for 15 minutes, a solution of methanol/acetonitrile (1/1 (v/v)) was added to quench the reaction. After centrifugation at 3000 rpm for 15 minutes, resorufin (CYP1A2 metabolite) in the supernatant was quantitated with a fluorescence multilabel counter, and hydroxylated tolbutamide (CYP2C9 metabolite), 4′-hydroxylated mephenyloin (CYP2C19 metabolite), […], terfenadine in alcohol form (CYP3A4 metabolite) were quantitated with LC/MS/MS.
The case wherein only DMSO (a solvent which dissolved a drug) was added to a reaction system was defined as a control (100%). When a test drug solution was added, the remaining activity (%) at each concentration was calculated, and then IC50 was calculated with a concentration and an inhibition ratio by an inverse estimation using a logistic model.

[5] = molecular target: T2, CYP3A4 (Homo sapiens, UniProt P08684); test: CYP3A4 fluorescence MBI test; assay type: in vitro ADME; details: difference in IC50 with 0 or 30 minutes pre-reaction; CYP3A4 expressed in E. coli, substrate 7-BFC
T2 construct: host or cells: E. coli
T2 sequence (P08684 whole entry): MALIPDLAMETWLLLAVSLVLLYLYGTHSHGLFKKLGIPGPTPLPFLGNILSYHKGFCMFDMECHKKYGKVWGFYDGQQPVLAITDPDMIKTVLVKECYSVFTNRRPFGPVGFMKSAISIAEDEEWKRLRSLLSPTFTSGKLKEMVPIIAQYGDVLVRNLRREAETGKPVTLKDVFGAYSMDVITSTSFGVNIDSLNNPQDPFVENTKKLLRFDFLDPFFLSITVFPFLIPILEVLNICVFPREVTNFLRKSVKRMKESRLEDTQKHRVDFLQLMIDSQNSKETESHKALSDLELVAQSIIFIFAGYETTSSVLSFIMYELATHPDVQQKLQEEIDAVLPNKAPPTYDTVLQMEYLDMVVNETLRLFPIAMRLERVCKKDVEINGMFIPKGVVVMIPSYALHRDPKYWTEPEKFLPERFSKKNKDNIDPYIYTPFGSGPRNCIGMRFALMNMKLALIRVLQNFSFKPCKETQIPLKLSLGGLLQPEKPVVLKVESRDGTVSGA
In short: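 E. coli-expressed CYP3A4 debenzylating 5.6 μmol/L 7-BFC to fluorescent 7-HFC (Ex 420/Em 535 nm) in K-Pi pH 7.4 at 25° C, 15 min reaction. NADPH pre-incubation of 0 or 30 min, with 10-fold dilution before reaction. IC50 from 0.625–20 μmol/L (6 points); (+) for an IC50 shift ≥5 μmol/L, (−) for ≤3 μmol/L.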

[6] = test system: AKT phosphorylation; test: AKT phosphorylation inhibitory activity in MCP-1 stimulated THP-1 cells (sandwich ELISA); assay type: cell-based, Human; details: Homo sapiens, compound at 1 μmol/L, MCP-1 stimulation, read-out: AKT phosphorylation inhibition ratio
Description: (1) The AKT phosphorylation inhibitory activity of a compound was evaluated according to the following procedure. (2) Human monocyte-like cell line THP-1 was washed with RPMI-1640 media, incubated in the presence of 5% CO2 at 37° C. for 3 hours, washed with Hank's balanced salt solution (HBSS), adjusted to a cell concentration of 6.7×10^6/mL, and then used in an experiment. (3) 30 μL of the cell suspension and 60 μL of each compound solution containing 0.2% DMSO/HBSS were mixed and then preincubated at 37° C. for 5 minutes. 30 μL of HBSS containing 1.2 μg/mL of MCP-1 was added thereto and then incubated for 60 seconds at 37° C. (4) 30 μL of a cell lysate (the final concentrations: 20 mmol/L Tris-HCl (pH 7.5), 150 mmol/L NaCl, 1 mmol/L EDTA, 1 mmol/L EDTA, 1% Triton X-100, 2.5 mmol/L sodium pyrophosphate, 1 mmol/L β-glycerophosphate, 1 mmol/L Na3VO4, 1 μg/ml leupeptin, 50 nmol/L APMSF) was added thereto to lyse cells. (5) The amount of AKT phosphorylation in the cell solution was measured by sandwich ELISA method using anti-Phospho-Akt (Ser473) antibody and anti-AKT1 antibody. (6) Anti-Phospho-Akt (Ser473) antibodies or anti-AKT1 antibodies were immobilized onto the solid phase of a micro well plate. The prepared cell lysate was added to the micro well plate, incubated, and then washed with ELISA wash solution. (7) An anti-AKT1 antibody or anti-Phospho-Akt (Ser473) antibody, which forms a counterpart to an antibody immobilized on the solid phase, was added thereto, incubated, washed similarly, and then reacted with an HRP-labeled anti-mouse IgG antibody. (8) After incubating for 30 minutes and then washing similarly, 100 μL of TMB (3,3′,5,5″-tetramethylbenzidine) was added thereto, followed by reacting for 30 minutes. (9) 100 μL of stop solution was added to quench the color reaction, and then the absorbance at 450 nm was measured. (10) The amount of AKT phosphorylation in a sample in the absence of a compound was defined as 100% activity, and the amount of AKT phosphorylation in a sample in the absence of MCP-1 was defined as 0% activity to calculate an inhibition ratio of each compound. The measurement was performed for a 1 μmol/L solution of each compound.

PI3Kγ, sequence (P48736 whole entry, species assumed): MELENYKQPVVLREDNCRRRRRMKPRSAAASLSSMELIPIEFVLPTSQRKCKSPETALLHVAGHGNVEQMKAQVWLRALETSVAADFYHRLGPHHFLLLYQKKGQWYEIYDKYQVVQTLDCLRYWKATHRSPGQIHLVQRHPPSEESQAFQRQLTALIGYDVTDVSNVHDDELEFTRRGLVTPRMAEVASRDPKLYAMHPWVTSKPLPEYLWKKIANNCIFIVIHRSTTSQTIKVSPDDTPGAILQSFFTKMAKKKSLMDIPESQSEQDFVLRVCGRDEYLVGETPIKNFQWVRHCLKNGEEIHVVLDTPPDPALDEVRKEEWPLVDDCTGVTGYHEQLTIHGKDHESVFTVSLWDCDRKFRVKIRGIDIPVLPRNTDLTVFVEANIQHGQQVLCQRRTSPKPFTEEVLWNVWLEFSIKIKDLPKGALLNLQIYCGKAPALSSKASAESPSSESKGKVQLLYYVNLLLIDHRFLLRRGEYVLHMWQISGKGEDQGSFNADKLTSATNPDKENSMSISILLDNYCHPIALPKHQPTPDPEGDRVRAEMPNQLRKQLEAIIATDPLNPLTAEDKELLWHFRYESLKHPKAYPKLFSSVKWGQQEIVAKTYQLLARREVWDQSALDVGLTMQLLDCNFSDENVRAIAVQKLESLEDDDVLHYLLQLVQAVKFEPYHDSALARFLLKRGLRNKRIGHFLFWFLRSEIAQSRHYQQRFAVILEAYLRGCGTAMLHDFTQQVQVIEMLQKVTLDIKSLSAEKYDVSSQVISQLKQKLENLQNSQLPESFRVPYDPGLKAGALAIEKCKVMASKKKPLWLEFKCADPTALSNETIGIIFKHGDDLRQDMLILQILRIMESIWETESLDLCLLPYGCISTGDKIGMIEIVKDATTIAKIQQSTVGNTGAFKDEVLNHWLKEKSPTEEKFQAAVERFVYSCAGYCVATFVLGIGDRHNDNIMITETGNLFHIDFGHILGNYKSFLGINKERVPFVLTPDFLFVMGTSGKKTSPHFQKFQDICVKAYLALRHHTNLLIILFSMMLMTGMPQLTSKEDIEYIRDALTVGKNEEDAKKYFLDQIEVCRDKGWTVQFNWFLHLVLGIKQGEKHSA

Row | Compound | inhibition at 10 µM [1] | hLMS_ox(at 0.5 μM) % [2] | IC50 at 15 min [4] | inhibition at 10 min, 1 µM [3] | MBI [5] | inhibition at 1 µM [6]
1 | COc1cc(C2CCc3nc(NC(=O)Nc4ccccc4C(=O)NC(C)C)sc3C2)nc(OC)n1 (centres unmarked) [Compound I-60] | ≥ 95% | 81.9% | > 20 µM | 3.6% | – | –
2 | COc1cc(N2CCc3nc(NC(=O)Nc4ccccc4C(=O)NC(C)C)sc3C2)cc(OC)n1 [Compound I-63] | ≥ 95% | 80.1% | > 20 µM | 2.7% | – | –
3 | COc1cc(N2CCc3nc(NC(=O)Nc4ccccc4C(=O)NCCC#N)sc3C2)nc(OC)n1 [Compound I-89] | ≥ 95% | 93.6% | ≥ 10 µM | – | (−) (When 3 μmol/L or less, the compound is shown as (−)) | –
4 | COc1cc(N2CCc3nc(NC(=O)Nc4ccccc4C(=O)NCC#N)sc3C2)nc(OC)n1 [Compound I-90] | – | 83.4% | ≥ 10 µM | – | (−) (When 3 μmol/L or less, the compound is shown as (−)) | –
5 | COc1cc(N2CCc3nc(NC(=O)Nc4cn(C)nc4C(=O)NC(CO)CO)sc3C2)nc(OC)n1 [Compound I-170] | ≥ 95% | 91.6% | > 20 µM | – | – | 80%
6 | Cc1cc(N2CCc3nc(NC(=O)Nc4ccccc4C(=O)NCC#N)sc3C2)nc(Cl)n1 [Compound I-172] | ≥ 95% | 98% | ≥ 10 µM | – | (−) (When 3 μmol/L or less, the compound is shown as (−)) | –

Further lines, with some results ahead:

Row | inhibition at 10 µM [1] | hLMS_ox(at 0.5 μM) % [2] | IC50 at 15 min [4] | Compound | inhibition at 10 min, 1 µM [3] | MBI [5] | inhibition at 1 µM [6]
7 | ≥ 95% | – | ≥ 10 µM | COc1nc(Cl)cc(N2CCc3nc(NC(=O)Nc4ccccc4C(=O)NC4CCOC4)sc3C2)n1 (centres unmarked) [Compound I-175] | 1.6% | – | 88%
8 | – | – | ≥ 10 µM | COc1nc(Cl)cc(N2CCc3nc(NC(=O)Nc4ccccc4C(=O)NC(C)C(F)(F)F)sc3C2)n1 (centres unmarked) [Compound I-176] | 0.4% | (−) (When 3 μmol/L or less, the compound is shown as (−)) | 83%
9 | 80% | – | > 20 µM | CC(C)NC(=O)c1ccccc1NC(=O)Nc1nc2c(s1)CN(c1cncc(C#N)c1)CC2 [Compound I-188] | 3.9% | – | 84%
10 | ≥ 95% | – | > 20 µM | CC(C)NC(=O)c1ccccc1NC(=O)Nc1nc2c(s1)CN(c1ccc(S(C)(=O)=O)cc1)CC2 [Compound I-204] | – | (−) (When 3 μmol/L or less, the compound is shown as (−)) | –
11 | ≥ 95% | – | ≥ 10 µM | CC(C)NC(=O)c1ccccc1NC(=O)Nc1nc2c(s1)CN(c1ccc(C#N)cc1)CC2 [Compound I-209] | – | (−) (When 3 μmol/L or less, the compound is shown as (−)) | –
